Measurements: PubChem BioAssay AID1963440 (Molecular Pharmacology Branch, DTP, NCI, 2024)
Several values for one entry are separate records, joined by “and”; a condition that tells them apart may be missing. Equal entries are not always repeated.

System: NCI-H1417 complex spheroids, growth % test/control
Test: Anticancer human tumor NCI-H1417 cell line growth inhibition [Asc];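 note: spheroids exposed to compounds for 7 days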;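 for viability, T/C: 100% = DMSO vehicle control wells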
Settings: for viability, T/C: stronger effect = lower value
Protocol: Multicellular complex tumor spheroid response to apoptosis pathway targeting inhibitors Alrizomadlin, Pelcitoclax, and Dasminapant in combination with a variety of drugs and investigational agents in selected tumor cell lines
The MDM2 inhibitor alrizomadlin, the Bcl-2/Bcl-xL inhibitor pelcitoclax, and the IAPs inhibitor dasminapant were evaluated both individually and in combination with standard of care and investigational anticancer small molecules within a complex spheroid model of solid tumors. . Complex spheroids include a stromal component modeled by human endothelial cells (HUVEC) and fibroblasts modeled by human mesenchymal stem cells (MSCs). The concentration ranges selected for each drug and investigational agent were based upon clinically achievable concentrations if the clinical Cmax of the agent was known.
Compounds. The drugs and investigational agents: alrizomadlin (APG-115; NSC831270), pelcitoclax (APG-1252; NSC835773), dasminapant (APG-1387;NSC834197), TAK-243 (NSC785004), copanlisib (NSC809693), olaparib (NSC753686), talazoparib (NSC767125), cobimetinib (NSC 768068), eltanexor (KPT-8602, NSC 794443), abemaciclib (NSC 768073), sotorasib (NSC818433), adagrasib (NSC 831453), MRTX-1133 (NSC 836407), Iadademestat (ORY1001, NSC 806812), and RMC-4630 (NSC839698), were obtained from the NCI Developmental Therapeutics Program Chemical Repository. The FDA-approved anticancer drug set is available from the Developmental Therapeutics Program at https://dtp.cancer.gov/organization/dscb/obtaining/available plates.htm. […] The stock solutions were prepared in dimethyl sulfoxide (DMSO, Sigma-Aldrich, St. Louis, MO, cat. D2650) at 800-fold the tested concentration and stored at -70 degrees C prior to their use. All drugs and investigational agents were tested over a range starting from a high concentration at or near the clinical Cmax and decreasing in half-log increments. If the clinical Cmax for an agent had not been determined, the highest concentration tested was 10 microM.
The patient-derived cancer (PDC) cell lines include five colon adenocarcinomas: 186277-243-T-J2-PDC, 616215-338-R-J1-PDC, 439559-082-T-J2-PDC, 463943-066-T-J2-PDC, and 519858-162-T-J1-PDC; three pancreatic carcinomas: 323965-272-R-J2-PDC, 521955-158-R6-J3-PDC, and 521955-158-R2-J5-PDC; two uterine sarcomas: 327498-152-R-J2-PDC and 993429-296-R-J1-PDC; two rhabdomyosarcomas: 755483-174-R-J1-PDC and 772245-204-R-J1-PDC; two soft tissue sarcomas: 126254-015-R-J1-PDC and 494315-158-R-J1-PDC; two malignant fibrous histiocytomas: 317291-083-R-J1-PDC and 596521-263-R-J1-PDC; two breast carcinomas: 171881-019-R-J1-PDC and 885512-296-R-J2-PDC; and one ovarian carcinoma: 6556581-035-R-J-PDC were obtained from the NCI PDMR, (https://pdmr.cancer.gov). The established cell lines HSSY-2 synovial sarcoma (RRID:CVCL 8719), SYO-1 synovial sarcoma (RRID:CVCL_7146), MPNST malignant peripheral neural sheath tumor were obtained from the Sloan Kettering Institute. The following established cell lines were purchased from the American Type Culture Collection (ATCC, Manassas, VA), Sor the received from the NCI repository:, PANC-1 pancreatic carcinoma (CRL-1469, RRID:CVCL_0480), OVCAR-5 ovarian carcinoma (RRID:CVCL_1628), OVCAR-8 ovarian carcinoma (RRID:CVCL_1629), , MCF-7 breast carcinoma (CRL-12584, RRID:CVCL_0031), MDA-MB-231 breast carcinoma (CRL-12532, RRID:CVCL_0062), NCI-H1876 small cell lung carcinoma (CRL-5902, RRID:CVCL_1503), NCI-H510A small cell lung carcinoma (HTB-184, RRID:CVCL_1565), NCI-H1417 (CRL-5869, RRID:CVCL_1469), and NCI-H196 small cell lung carcinoma (CRL-5823, RRID:CVCL_1509). Dr. Peter Houghton (Greehey Children's Cancer Research Institute, University of Texas Health Science Center, San Antonio, TX) provided Rh-18 rhabdomyosarcoma (RRID:CVCL_1659). Pooled donor human umbilical vein endothelial cells (HUVEC, Lonza, cat. CC-2519) and human mesenchymal stem cells (hMSC, Lonza, cat. PT-2501) were purchased from Lonza (Walkersville, MD).
Cell Culture. […]

[1] = compound alone, run of 10/11/2022

## C#Cc1c(F)ccc2cc(O)cc(-c3ncc4c(N5CC6CCC(C5)N6)nc(OCC56CCCN5CC(F)C6)nc4c3F)c12 (stereo not drawn)
Compound 0.0316 µM
  viability, T/C: 93% and 102% and 110%
Compound 0.1 µM
  viability, T/C: 89.5% and 97.4% and 102%
Compound 0.316 µM
  viability, T/C: 94.3% (2×) and 101%
Compound 1 µM
  viability, T/C: 106% and 98.8% and 97.6%
Compound 3.16 µM
  viability, T/C: 96.5% and 100% and 101%
Compound 10 µM
  viability, T/C: 72.5% and 96.5% and 83%
Curve of compound
  IC50: > 10000 nM

## C=C(F)C(=O)N1CCN(c2nc(OCC3CCCN3C)nc3c2CCN(c2cccc4cccc(Cl)c24)C3)CC1CC#N (stereo not drawn)
Compound 0.0316 µM
  viability, T/C: 98.9% and 103% and 94.2%
Compound 0.1 µM
  viability, T/C: 106% and 101% and 88%
Compound 0.316 µM
  viability, T/C: 96.4% and 99.8% and 99.7%
Compound 1 µM
  viability, T/C: 90.7% and 84.8% and 90.3%
Compound 3.16 µM
  viability, T/C: 59.8% and 57.5% and 74.3%
Compound 10 µM
  viability, T/C: 0.26% and 0.27% and 0.31%
Curve of compound
  IC50: 3830 nM and 3660 nM and 4610 nM

## C=CC(=O)N1CCN(c2nc(=O)n(-c3c(C)ccnc3C(C)C)c3nc(-c4c(O)cccc4F)c(F)cc23)C(C)C1 (stereo not drawn)
Compound 0.0316 µM
  viability, T/C: 111% and 108% and 110%
Compound 0.1 µM
  viability, T/C: 105% and 90.2% and 96.7%
Compound 0.316 µM
  viability, T/C: 112% and 98.4% and 106%
Compound 1 µM
  viability, T/C: 111% and 105% and 101%
Compound 3.16 µM
  viability, T/C: 99.4% and 104% and 103%
Compound 10 µM
  viability, T/C: 99.5% and 102% and 94.5%
Curve of compound
  IC50: > 10000 nM

## CCN1C(C(=O)NC23CCC(C(=O)O)(CC2)CC3)C(c2cccc(Cl)c2F)C2(C(=O)Nc3cc(Cl)ccc32)C12CCCCC2 (stereo not drawn)
Compound 0.00949 µM
  viability, T/C: 102% and 109%
Compound 0.03 µM
  viability, T/C: 102% [middle of 15 runs]
Compound 0.0949 µM
  viability, T/C: 101% [middle of 15 runs]
Compound 0.3 µM
  viability, T/C: 97.9% [middle of 15 runs]
Compound 3 µM
  viability, T/C: 93.4% [middle of 15 runs]
[1]
  IC50: > 3000 nM
Curve of compound
  IC50: > 3000 nM

## CCN1CCN(Cc2ccc(Nc3ncc(F)c(-c4cc(F)c5nc(C)n(C(C)C)c5c4)n3)nc2)CC1
Compound 0.00316 µM
  viability, T/C: 99.3% and 89.7% and 102%
Compound 0.01 µM
  viability, T/C: 95.8% and 105% and 93.8%
Compound 0.0316 µM
  viability, T/C: 99.9% and 102% and 101%
Compound 0.1 µM
  viability, T/C: 96.5% and 111% and 105%
Compound 0.316 µM
  viability, T/C: 92.8% and 84.3% and 97.3%
Compound 1 µM
  viability, T/C: 91.7% and 81% and 79.7%
Curve of compound
  IC50: > 1000 nM

## CNC(C)C(=O)NC1CN(S(=O)(=O)c2cccc(S(=O)(=O)N3CCC4CCC(C(=O)NC(c5ccccc5)c5ccccc5)N4C(=O)C(NC(=O)C(C)NC)C3)c2)CCC2CCC(C(=O)NC(c3ccccc3)c3ccccc3)N2C1=O (stereo not drawn)
Compound 0.00316 µM
  viability, T/C: 95% and 113% and 107%
Compound 0.01 µM
  viability, T/C: 105% [middle of 14 runs]
Compound 0.0316 µM
  viability, T/C: 97.8% [middle of 13 runs]
Compound 0.316 µM
  viability, T/C: 96.8% [middle of 14 runs]
Compound 1 µM
  viability, T/C: 97.5% [middle of 14 runs]
Compound alone, run of 10/24/2022
  IC50: > 1000 nM
Compound alone, run of 11/15/2022
  IC50: > 1000 nM
Curve of compound
  IC50: > 1000 nM

## COc1c(OCCCN2CCOCC2)ccc2c3n(c(=NC(=O)c4cnc(N)nc4)nc12)CCN3
Compound 0.00316 µM
  viability, T/C: 94.5% and 101% and 96.7%
Compound 0.01 µM
  viability, T/C: 100% and 96.2% and 99%
Compound 0.0316 µM
  viability, T/C: 82.9% and 83.8% and 91.8%
Compound 0.1 µM
  viability, T/C: 76.9% and 73.8% and 90.3%
Compound 0.316 µM
  viability, T/C: 69% and 70.4% and 77.1%
Compound 1 µM
  viability, T/C: 54.8% and 47.9% and 64%
Curve of compound
  IC50: > 1000 nM

## Cc1c(S(C)(=O)=O)c(-c2cc(F)cc(N3CCN(c4ccc(NS(=O)(=O)c5ccc(NC(CCN6CCC(C(=O)OCCCP(=O)(O)O)CC6)CSc6ccccc6)c(S(=O)(=O)C(F)(F)F)c5)cc4)CC3)c2)c(-c2ccc(Cl)cc2)n1C(C)C (stereo not drawn)
Compound 0.1 µM
  viability, T/C: 81.6% [middle of 14 runs]
Compound 0.316 µM
  viability, T/C: 50.6% [middle of 14 runs]
Compound 1 µM
  viability, T/C: 13.7% [middle of 14 runs]
Compound 3.16 µM
  viability, T/C: 3.19% [middle of 14 runs]
Compound 10 µM
  viability, T/C: 2.54% [middle of 12 runs]
[1]
  IC50: 322 nM [middle of 14 runs]

## Cc1nc(N2CCC3(CC2)COC(C)C3N)c(CO)nc1Sc1ccnc(N)c1Cl (stereo not drawn)
Compound 0.00949 µM
  viability, T/C: 83.4% and 92.6% and 92.5%
Compound 0.03 µM
  viability, T/C: 82.8% and 102% and 101%
Compound 0.0949 µM
  viability, T/C: 104% and 101% and 77.7%
Compound 0.3 µM
  viability, T/C: 112% and 84.2% and 93%
Compound 0.949 µM
  viability, T/C: 101% and 84% and 83.2%
Compound 3 µM
  viability, T/C: 76.5% and 70.5% and 76.4%
Curve of compound
  IC50: > 3000 nM

## Cn1ncnc1[C@H]1c2n[nH]c(=O)c3cc(F)cc(c23)N[C@@H]1c1ccc(F)cc1
Compound 0.000316 µM
  viability, T/C: 101% and 113% and 97.4%
Compound 0.001 µM
  viability, T/C: 90.8% and 116% and 85%
Compound 0.00316 µM
  viability, T/C: 81.6% and 87.3% and 69.7%
Compound 0.01 µM
  viability, T/C: 70.8% and 75.9% and 67.2%
Compound 0.0316 µM
  viability, T/C: 56.4% and 77% and 57%
Compound 0.1 µM
  viability, T/C: 44% and 79.8% and 30.6%
Curve of compound
  IC50: 58.2 nM and > 100 nM and 32.1 nM

## NC(=O)C(=Cn1cnc(-c2cc(C(F)(F)F)cc(C(F)(F)F)c2)n1)c1cncnc1
Compound 0.000949 µM
  viability, T/C: 98.9% and 102% and 99.9%
Compound 0.003 µM
  viability, T/C: 99.9% and 106% and 107%
Compound 0.00949 µM
  viability, T/C: 89.7% and 96.8% and 104%
Compound 0.03 µM
  viability, T/C: 93% and 97.1% and 94.3%
Compound 0.0949 µM
  viability, T/C: 79.8% and 61.8% and 85.1%
Compound 0.3 µM
  viability, T/C: 25.3% and 22.2% and 44.6%
Curve of compound
  IC50: 178 nM and 134 nM and 259 nM

## NC1CCC(NC2CC2c2ccccc2)CC1 (stereo not drawn)
Compound 0.000316 µM
  viability, T/C: 94.2% and 90.8% and 94.6%
Compound 0.001 µM
  viability, T/C: 91.8% and 89.6% and 93.2%
Compound 0.00316 µM
  viability, T/C: 89.5% and 86.4% and 89.2%
Compound 0.01 µM
  viability, T/C: 83.2% and 78.4% and 87.9%
Compound 0.0316 µM
  viability, T/C: 89% and 84.6% and 88.3%
Compound 0.1 µM
  viability, T/C: 82.3% and 78.4% and 97.6%
Curve of compound
  IC50: > 100 nM

## O=C(c1cc(Cc2n[nH]c(=O)c3ccccc23)ccc1F)N1CCN(C(=O)C2CC2)CC1
Compound 0.0316 µM
  viability, T/C: 96.7% and 102% and 86.3%
Compound 0.1 µM
  viability, T/C: 106% and 90.7% and 91.3%
Compound 0.316 µM
  viability, T/C: 89.8% and 84.6% and 86.3%
Compound 1 µM
  viability, T/C: 80.9% and 84.3% and 99.2%
Compound 3.16 µM
  viability, T/C: 56.5% and 56.2% and 71%
Compound 10 µM
  viability, T/C: 38.3% and 24.6% and 36%
Curve of compound
  IC50: 4830 nM and 4200 nM and 6310 nM

## O=C(c1ccc(F)c(F)c1Nc1ccc(I)cc1F)N1CC(O)([C@@H]2CCCCN2)C1
Compound 0.00316 µM
  viability, T/C: 89.8% and 105% and 96.8%
Compound 0.01 µM
  viability, T/C: 99.2% and 107% and 97.3%
Compound 0.0316 µM
  viability, T/C: 84.4% and 103% and 97.9%
Compound 0.1 µM
  viability, T/C: 89% and 98.1% and 116%
Compound 0.316 µM
  viability, T/C: 88.8% and 94.5% and 97.2%
Compound 1 µM
  viability, T/C: 65.3% and 83.7% and 98.2%
Curve of compound
  IC50: > 1000 nM
